Measurements: article PMC9862186 (International Journal of Molecular Sciences, 2023)

Legend:
in vivo [1] = assay: in vivo
Protocol: A saline solution (0.9% NaCl) was added to a mixture of cinnamaldehyde (density = 1.05 g/mL) and Cremophor® RH 40 (1:1 v/v) in order to obtain a 12.5 mg/mL cinnamaldehyde emulsion in the presence of ethanol (10% of final volume). A group (n = 4) of male Wistar rats (200–250 g) fasted for 24 h was anesthetized during the experimental period and received 0.4 mL via a femoral intravenous infusion (rate = 0.2 mL/min; 2 min) of 12.5 mg/mL cinnamaldehyde emulsion (20 mg/kg cinnamaldehyde dose).
At the end of the infusions and at fixed time points, CSF samples (50 μL) were withdrawn and blood samples (100 μL) were collected. The CSF was withdrawn using the cisternal puncture method described by van den Berg et al., which requires a single needle stick and allows the collection of serials (40–50 μL) CSF samples that are virtually blood-free. A total volume of about a maximum of 150 μL of CSF/rat (i.e., three 50 μL samples/rat) was collected during the experimental session, choosing the time points (n = 3–5, taking into account a maximum of three collections per rat) in order to allow the restoring of the CSF physiological volume.
The samples were centrifuged at 12,500× g for 5 min, then about 300 μL of supernatant were withdrawn and further centrifuged. […] As a control, a blood sample (100 μL) was collected by each rat before the administrations of the drugs. The control samples were immediately added to 300 μL of ice-cold CH3CN in the absence of internal standard, then treated as described above.
For cinnamaldehyde analysis the blood samples were hemolyzed immediately after their collection with 500 μL of ice-cold water, and then 50 μL of 10% sulfosalicylic acid and 50 μL of internal standard (100 μM carbazole dissolved in a water-methanol mixture 50:50 v/v) was added. The samples were extracted twice with 1 mL of water-saturated ethyl acetate, and, after centrifugation at 12,500× g for 10 min, the organic layer was reduced to dryness under a mild nitrogen stream at room temperature. Then, 200 μL of a water-acetonitrile mixture (50:50 v/v) were added, and after centrifugation, 10 μL were analyzed via HPLC (see below) for cinnamaldehyde detection. As a control, a blood sample (100 μL) was collected by each rat before the administration of the drug. The control samples were treated as described above in the absence of internal standard.
(§1) In particular, all the AUC values referred to the bloodstream were calculated by the trapezoidal method within the last time point detected, and the remaining area was obtained as the ratio between the compound concentration detected at the last time point and the elimination constant (kel), which was obtained from the slope of the semilogarithmic plots (−slope × 2.3). The clearance (Cl) and distribution volume (Vd) values were calculated according to the non-compartmental model as the ratios “dose/AUC” and “Cl/kel”, respectively, where kel is the elimination constant obtained by the slope of semilogarithmic plot.
The chromatographic apparatus consisted of a modular system (model LC-10 AD VD pump and model SPD-10A VP variable wavelength UV−vis detector; Shimadzu, Kyoto, Japan) and an injection valve with 20 μL sample loop (model 7725; Rheodyne, IDEX, Torrance, CA, USA). Separations were performed at room temperature on a 5 μm Hypersil BDS C-18 column (150 mm × 4.6 mm i.d.; Alltech Italia Srl, Milan, Italy) equipped with a guard column packed with the same Hypersil material. The volume injection was 10 μL. Data acquisition and processing were performed on a personal computer using CLASS-VP Software, version 7.2.1 (Shimadzu Italia, Milan, Italy).
The detector was set at 205 nm.

in vivo [2] = details: Wistar, rat
Protocol: Each type of formulation was administered to a group of four rats.
In particular, 4.2 mL of EU-CD formulation were administered to rats (500 mg/kg dose).
In particular, 320 μL of EU-SL formulation were administered to rats (500 mg/kg dose).
Free cinnamaldehyde (100 mg) was orally administered by gavage to rats kept fasting since 24 h. In particular, 95 μL of cinnamaldehyde (density = 1.05 g/mL) were dissolved in 905 μL of corn oil and administered to rats (400 mg/kg dose).
The solid AC-GN formulation (14% w/w cinnamaldehyde) was mixed with palatable food in order to induce their oral intake by the rats kept fasting since 24 h. In particular, the rats assumed a dose of 100 mg of cinnamaldehyde (400 mg/kg) contained in 714 mg of AC-GN.
After the administrations, blood (100 μL) and CSF samples (50 μL) were serially collected at fixed time points from each rat and treated as described above in order to quantify the compounds.
as §1

PC12 cells = assay: MTT cell viability assay in neuronal differentiated PC12 cells; type: cell-based, rat; details: 2 h
Protocol: PC12 cell line (RRID:CVCL_0481), derived from rat adrenal gland pheochromocytoma, was a kind gift from Dr Federica Brugnoli from the Department of Translational Medicine, University of Ferrara, Ferrara (Italy). The cells were grown in RPMI-1640 (HiGlutaXL) medium (Microtech, Naples, Italy), supplemented with 100 µg/mL streptomycin and 100 IU/mL penicillin, 10% horse serum (HS), and 5% fetal bovine serum (FBS). PC12 cells were gently removed from the 4 µg/cm^2 collagen IV-coated flask with a rubber scraper, transferred as cell suspension into a Falcon tube and resuspended through a sterile tip to avoid any clumping, then split into separate flasks twice weekly. To differentiate neuronal phenotypes, PC12 cells were seeded in 4 µg/cm^2 collagen IV-coated 12-well plates at a density of 5000 cells/well, and they were then left to adhere to the well for 24 h. […] All the proliferative and differentiated cultures were maintained at 37 °C in a humidified 5% CO2 atmosphere.
The 100% of cell viability was stated as control in the absence of compound. Then, incubation buffer was withdrawn, and 0.2 mL per well of a solution of MTT 500 µg/mL was added to each well and kept for 2 h at 37 °C in a humidified atmosphere at 95% with 5% CO2. After the conversion of the substrate to a chromogenic product by metabolically active cells, the MTT solution was removed, and the purple MTT formazan crystals were solubilized with 0.1 mL/well of DMSO for 60 min at 37 °C. The absorbance of each sample was measured with a multiplate reader spectrophotometer (Sunrise® Microplate Reader, Tecan Trading AG, Männedorf, Switzerland) at 570 nm, using 690 nm as a reference wavelength. Cell viability, proportional to absorbance, was reported as ratio between the absorbance resulting from the treatments and absorbance resulting from the control, considered as 100% of viable cells. Data were plotted as graphs and analyzed using GraphPad software (Prism, version 7.0, San Diego, CA, USA).

rats = details: cited from earlier work
[3] = male, Wistar, rat, in vivo, iv, 20 mg/kg

## C=CCc1ccc(O)c(OC)c1 [Eugenol]
In vivo [1]; male, Wistar, rat, in vivo, iv
  Vd: 3.21 ± 0.247 L/kg
  clearance: 114 ± 2 mL/min/kg
  half-life: 19.4 ± 2.1 min
In vivo [1]; [3]
  concentration at 5 min: 3600 ± 200 ng/mL
  concentration at 10 min: 2900 ± 100 ng/mL
In vivo [1]; male, Wistar, rat, in vivo, iv, kel: pseudo first order kinetic elimination rate constant, rat blood, iv 20 mg/kg (eugenol, cinnamaldehyde), 100 mg/kg (D-limonene), eugenol value terminal
  k el: 0.0006 s⁻¹
In vivo [1]; rat blood, iv infusion 2 min, 20 mg/kg eugenol and cinnamaldehyde, 100 mg/kg D-limonene, mean ± SE, n = 4
  C0: concentration in the bloodstream at the end of infusion: 16500 ± 200 ng/mL
In vivo [2]
  Tmax: time of Cmax in the bloodstream: 10 min
In vivo [2]; po, F: absolute bioavailability, oral versus iv AUC normalized to dose
  bioavailability: 4%
PC12 cells; 25 µM, 37 °C, NGF-differentiated PC12
  increase of cell viability over the untreated cell value: 2.5 times
PC12 cells; 2, 25, 50 and 100 µM, p < 0.0001, no toxic impact
  effect on cell viability compared to untreated control: statistically significant increase in cell viability
PC12 cells; tested 2, 25, 50 and 100 µM
  most effective concentration in increasing cell viability: 25 µM
rats; oral
  oral LD50: about 2 g/kg
rats; rat, in vivo, iv
  intravenous doses inducing anesthetic effects without relevant side effects: up to 60 mg/kg
